Key:
[1] = molar heat capacity at constant pressure; conditions: 101 kPa, Liquid, Small sample (50 mg) DSC
[2] = 101 kPa, Liquid
[3] = xn = mol fraction of the nth substance listed; conditions: 101 kPa, Liquid, x2 = 0

BrCCBr [1,2-dibromoethane]
Conditions	mass density [kg/m3]	molar heat capacity at constant pressure [J/K/mol]	speed of sound [m/s]
[1], 293.15 K	–	136.87	–
[1], 294.15 K	–	136.9	–
[1], 295.15 K	–	136.95	–
[1], 296.15 K	–	136.99	–
[1], 297.15 K	–	137.02	–
[1], 298.15 K	–	137.04	–
[1], 299.15 K	–	137.09	–
[1], 300.15 K	–	137.11	–
[1], 301.15 K	–	137.15	–
[1], 302.15 K	–	137.2	–
[1], 303.15 K	–	137.25	–
[1], 304.15 K	–	137.29	–
[1], 305.15 K	–	137.32	–
[1], 306.15 K	–	137.39	–
[1], 307.15 K	–	137.42	–
[1], 308.15 K	–	137.49	–
[1], 309.15 K	–	137.53	–
[1], 310.15 K	–	137.6	–
[1], 311.15 K	–	137.65	–
[1], 312.15 K	–	137.71	–
[1], 313.15 K	–	137.77	–
[2], 292.84 K	–	–	1007.5
[2], 293.15 K	2178.77	–	–
[2], 298.15 K	2168.41	–	–
[2], 299.17 K	–	–	991.14
[2], 303.15 K	2157.94	–	–
[2], 303.37 K	–	–	980.18
[2], 308.15 K	2147.47	–	–
[2], 308.75 K	–	–	966.56
[2], 313.15 K	2136.96	–	–
[2], 314.45 K	–	–	952

CCCCCCC [heptane]
[2]
Conditions	mass density [kg/m3]
293.15 K	683.82
298.15 K	679.59
303.15 K	675.31
308.15 K	671.02
313.15 K	666.68

CCCCCCC [heptane] + BrCCBr
[3]
Conditions	mass density [kg/m3]
293.15 K	683.82
298.15 K	679.59
303.15 K	675.31
308.15 K	671.02
313.15 K	666.68

Reference: the NIST ThermoML archive (doi:10.1021/je0603325)
